Series [1] addresses recombinant human BACE-1 protein (Homo sapiens (Human), UniProt P56817). Put plainly: Measurement of Inhibition of β-Secretase Activity. The format is biochemical. In a few lines:
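Recombinant human BACE-1 incubated with compound and Eu-cryptate-labelled biotinylated peptide substrate 3 h at 30° C in 50 mM sodium acetate pH 5.0, 0.008% Triton X-100. Streptavidin-XL665 in KF-containing phosphate buffer pH 7.0 then added, 1 h at 30° C, for time-resolved FRET read-out.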

The mark [2] stands for this setting: fluorescence-quenched peptide substrate 18 nM, BACE-1 7.4 nM, 3 h at 30° C., pH5.0, read-out: IC50 value.
The mark [3] stands for this setting: recombinant human BACE-1 protein, 3 h at 30° C., pH5.0, read-out: IC50 value.

Like-named read-outs stand apart in the source and are kept apart here. Where only a bound is given, the exact number is not on record here.

Chain of recombinant human BACE-1 protein (P56817 46-501): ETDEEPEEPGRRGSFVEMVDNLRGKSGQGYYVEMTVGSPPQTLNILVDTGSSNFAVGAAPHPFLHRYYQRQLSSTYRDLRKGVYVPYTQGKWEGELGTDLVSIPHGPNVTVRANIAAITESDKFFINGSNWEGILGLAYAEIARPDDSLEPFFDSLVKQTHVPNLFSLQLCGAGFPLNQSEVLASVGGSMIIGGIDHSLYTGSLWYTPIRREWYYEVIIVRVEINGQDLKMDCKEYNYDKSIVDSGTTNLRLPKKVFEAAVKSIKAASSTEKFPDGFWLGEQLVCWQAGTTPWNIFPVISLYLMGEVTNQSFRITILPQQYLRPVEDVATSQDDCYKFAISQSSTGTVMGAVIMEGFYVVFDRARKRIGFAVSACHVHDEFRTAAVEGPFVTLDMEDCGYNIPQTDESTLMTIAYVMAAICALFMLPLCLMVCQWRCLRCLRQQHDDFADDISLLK

As to `CC1(c2ccc3ccccc3c2)CCSC(N)=N1.Cl` (stereo not drawn) [Compound 3], the melting point was 285 °C (dec.). Further, in series [1] (setting [2]), the IC50 was under 100 µM.
The like results for `CC1(c2ccc3c(c2)CCCC3)CCSC(N)=N1` (stereo not drawn) [Compound 6] were, in that order, 147 to 148 °C and under 100 µM.
On to `COc1ccc(C2(C)N=C(N)SCC2C)cc1.Cl` (stereo not drawn) [Compound 8], for which the melting point fell in the range of 214 to 217 °C. Besides, in series [1] (setting [2]), the IC50 was under 100 µM.
As to `CC1(c2ccc3c(c2)OCCO3)CCSC(N)=N1` (stereo not drawn) [Compound 18], the melting point was 181 to 183 °C. Besides, the IC50 in series [1] (setting [2]) was under 100 µM.
Consider `CC1(c2cccc(NC(=O)c3ccc(C(F)(F)F)cc3)c2)CCSC(N)=N1` (stereo not drawn) [Compound 26], for which the melting point fell in the range of 182 to 184 °C. In series [1] (setting [3]), the 50% inhibitory concentration (IC50) was found to be 1.98 µM.
As for `CC1(c2ccc3c(c2)NC(=O)CO3)CCSC(N)=N1` (stereo not drawn) [Compound 38], the melting point was 240 to 244 °C (dec.). Also, the IC50 in series [1] (setting [2]) was under 100 µM.
In the case of `CC1(c2csc3ccccc23)CCSC(N)=N1` (stereo not drawn) [Compound 42], the melting point is 187 to 188 °C. For the same molecule, in series [1] (setting [2]), the IC50 was under 100 µM.
The corresponding values for `CC1(c2cccc(OCCOc3ccccc3)c2)CCSC(N)=N1.Cl` (stereo not drawn) [Compound 57] are 197 to 198 °C and under 100 µM.
Molecule `CC1(c2cccc(NC(=O)c3ccc(C(N)=O)cn3)c2)CCSC(N)=N1.Cl` (stereo not drawn) [Compound 73] came in with a melting point of 266 to 269 °C. Besides, the IC50 in series [1] (setting [3]) amounted to 0.435 µM.
The molecule `Cc1ccc(C2(C)CCSC(N)=N2)cc1` (stereo not drawn) [Compound 85] had a melting point of 147 to 148 °C. In series [1] (setting [2]), the IC50 was under 100 µM.
`CC1(c2cc(F)cc(NC(=O)c3ccc(Cl)cn3)c2)CCSC(N)=N1` (stereo not drawn) [Compound 99]: the melting point was 221 to 224 °C. For the same molecule, in series [1] (setting [2]), the IC50 is under 100 µM.
With `CC1(c2cccc(OCCOc3ccc(Cl)cc3)c2)CCSC(N)=N1.Cl` (stereo not drawn) [Compound 121], the melting point lay in the range of 166 to 167 °C. Also, the IC50 in series [1] (setting [2]) was under 100 µM.
The corresponding values for `CC1(c2ccc3ccccc3c2)CCNC(N)=N1.O=S(=O)(O)O` (stereo not drawn) [Compound 125] are over 300 °C and under 100 µM.
The molecule `CC1(c2cccc(NC(=O)c3ncc(Cl)cc3Cl)c2)CCSC(N)=N1.Cl` (stereo not drawn) [Compound 127] returned a melting point of 280 to 285 °C. The IC50 in series [1] (setting [3]) turned out to be 0.054 µM.
With `COCc1ccc(C(=O)Nc2cccc(C3(C)CCSC(N)=N3)c2)nc1` (stereo not drawn) [Compound 128], the melting point lay within 159 to 163 °C. Moreover, in series [1] (setting [2]), the IC50 was under 100 µM.
Take `CC1(c2ccc(F)cc2)CCCSC(N)=N1.Cl` (stereo not drawn) [Compound 129]: the melting point was 219 to 222 °C. Besides, the IC50 in series [1] (setting [2]) was under 100 µM.
In turn, `Cc1cc(C(=O)Nc2cccc(C3(C)CCSC(N)=N3)c2)n(C)n1` (stereo not drawn) [Compound 130] gave a melting point of 128 to 131 °C. The IC50 in series [1] (setting [2]) is under 100 µM.
The molecule `CC(=O)c1ccc(C(=O)Nc2cccc(C3(C)CCSC(N)=N3)c2)nc1` (stereo not drawn) [Compound 139] came in with a melting point of 287 to 290 °C. The IC50 in series [1] (setting [2]) was under 100 µM.
As for `CC1(c2cccc(/C=C/c3ccc(Cl)cc3)c2)CCSC(N)=N1.Cl` (stereo not drawn) [Compound 161], the melting point fell in the range of 247 to 251 °C. In series [1] (setting [3]), the IC50 came to 7.7 µM.
In the case of `CC1(c2cccc(NC(=O)c3cnccn3)c2)CCSC(N)=N1` (stereo not drawn) [Compound 164], the melting point lay in the range of 91 to 96 °C. In series [1] (setting [2]), the IC50 is under 100 µM.
`CC1(c2cc(Br)cc(NC(=O)c3ccc(Cl)cn3)c2)CCSC(N)=N1.Cl` (stereo not drawn) [Compound 165] returned a melting point of 246 to 248 °C. Besides, the IC50 in series [1] (setting [3]) turned out to be 0.0394 µM.
For the molecule `CC1(c2cc(F)cc(NC(=O)c3ccc(C(F)(F)F)cn3)c2)CCSC(N)=N1` (stereo not drawn) [Compound 178], the melting point was 224 to 225 °C. Further, the IC50 in series [1] (setting [2]) is under 100 µM.
The corresponding values for `CC1(c2cc(NC(=O)c3ncc(Cl)cn3)ccc2F)CCSC(N)=N1` (stereo not drawn) [Compound 204] are 205 to 208 °C and under 100 µM.
The molecule `CC1(c2cccc(C(=O)Nc3ccc(Cl)cn3)c2)CCSC(N)=N1.Cl.Cl` (stereo not drawn) [Compound 220] registered a melting point of 191 to 193 °C. In addition, the IC50 in series [1] (setting [3]) turned out to be 1.5 µM.
For `CC1(c2cc(NC(=O)c3n[nH]c4ccccc34)ccc2F)CCSC(N)=N1` (stereo not drawn) [Compound 241], the melting point lay within 187 to 190 °C. Moreover, the 50% inhibitory concentration (IC50) in series [1] (setting [2]) was under 100 µM.
The like results for `COc1cnc(C(=O)Nc2cccc(C3(C)CCSC(N)=N3)c2)cn1` (stereo not drawn) [Compound 243] were, in that order, 182 to 184 °C and under 100 µM.
`CC1(c2cc(C#N)cc(NC(=O)c3ccc(Cl)cn3)c2)CCSC(N)=N1` (stereo not drawn) [Compound 255]: the melting point lay in the range of 238 to 239 °C. The IC50 in series [1] (setting [2]) was under 100 µM.
The like results for `CC1(c2ccc(Oc3ccc(F)cc3)cc2)CCSC(N)=N1` (stereo not drawn) [Compound 267] were, in that order, 114 to 115 °C and under 100 µM.
The corresponding values for `CC1(c2cccc(OCCCc3cccnc3)c2)CCSC(N)=N1` (stereo not drawn) [Compound 282] are 146 to 147 °C and under 100 µM.
The like results for `CN(C)c1cnc(C(=O)Nc2cccc(C3(C)CCSC(N)=N3)c2)cn1` (stereo not drawn) [Compound 302] were, in that order, 122 to 126 °C and under 100 µM.
The molecule `Cc1cnc(C(=O)Nc2cccc(C3(C)CCSC(N)=N3)c2)cn1.Cl` (stereo not drawn) [Compound 309] had a melting point of 241 to 244 °C. In series [1] (setting [3]), the IC50 came out at 0.833 µM.
As for `CC1(c2cccc(NCc3ccccn3)c2)CCSC(N)=N1` (stereo not drawn) [Compound 333], the melting point was 154 to 158 °C. Further, the IC50 in series [1] (setting [2]) is under 100 µM.
The corresponding values for `CC1(c2cccc(Br)c2)CCSC(N)=N1.Cl` (stereo not drawn) [Compound 339] are 217 to 218 °C and under 100 µM.
The corresponding values for `Cc1cnc(C(=O)Nc2ccc(F)c(C3(C)CCSC(N)=N3)c2)cn1` (stereo not drawn) [Compound 359] are 212 to 214 °C and under 100 µM.
`CCC1(c2cccc(NC(=O)c3ccc(Cl)cn3)c2)CCSC(N)=N1` (stereo not drawn) [Compound 380] registered a melting point of 181 to 182 °C. For the same molecule, in series [1] (setting [2]), the half-maximal inhibitory concentration (IC50) is under 100 µM.
`CC1(c2cc(NC(=O)c3ccc(C(F)(F)F)cn3)ccc2F)CCSC(N)=N1` (stereo not drawn) [Compound 396] came in with a melting point of 211 to 213 °C. Further, the IC50 in series [1] (setting [2]) is under 100 µM.
`COc1ccc(C(=O)Nc2cccc(C3(C)CCSC(N)=N3)c2)nn1` (stereo not drawn) [Compound 405] registered a melting point of 192 to 194 °C. Further, the IC50 in series [1] (setting [2]) was under 100 µM.
For `CC(C)Oc1cnc(C(=O)Nc2cccc(C3(C)CCSC(N)=N3)c2)cn1` (stereo not drawn) [Compound 410], the melting point fell in the range of 178 to 182 °C. In addition, in series [1] (setting [2]), the IC50 is under 100 µM.
Turning to `CC1(c2ccc(O)cc2)CCSC(N)=N1.Cl` (stereo not drawn) [Compound 413], the melting point fell in the range of 251 to 254 °C. For the same molecule, the IC50 in series [1] (setting [2]) was under 100 µM.
Consider `CCOC(=O)/C=C/c1cccc(C2(C)CCSC(N)=N2)c1` (stereo not drawn) [Compound 417], for which the melting point lay in the range of 137 to 139 °C. The IC50 in series [1] (setting [3]) amounted to 5 µM.
In the case of `Cc1cc(C(=O)Nc2cc(Br)cc(C3(C)CCSC(N)=N3)c2)c(C)o1.Cl` (stereo not drawn) [Compound 436], the melting point is 254 to 256 °C. Further, in series [1] (setting [3]), the IC50 was 0.16 µM.
`Cc1cnc(C(=O)Nc2cccc(C3(C)CCSC(N)=N3)c2)cn1` (stereo not drawn) [Compound 444]: the melting point lay in the range of 214 to 215 °C. In addition, the IC50 in series [1] is under 100 µM.
`COc1ccc(C(=O)NCc2cccc(C3(C)CCSC(N)=N3)c2)cc1.Cl` (stereo not drawn) [Compound 452] registered a melting point of 132 to 134 °C. For the same molecule, the IC50 in series [1] (setting [2]) was under 100 µM.
The like results for `CC1(c2cccc(/C=N/OCc3ccncc3)c2)CCSC(N)=N1` (stereo not drawn) [Compound 456] were, in that order, 147 to 149 °C and under 100 µM.
`COCc1cc(NC(=O)c2ccc(C)cc2)cc(C2(C)CCSC(N)=N2)c1` (stereo not drawn) [Compound 465] registered a melting point of 194.6 °C. Also, the IC50 in series [1] (setting [3]) worked out at 3.24 µM.
`CC1(c2ccc(C(=O)Nc3ccccc3)s2)CCSC(N)=N1` (stereo not drawn) [Compound 483]: the melting point lay in the range of 224 to 227 °C. For the same molecule, the IC50 in series [1] (setting [2]) is under 100 µM.
With `CC1(c2cccc(NC(=O)c3ccc(C#N)cc3)c2)CCSC(N)=N1` (stereo not drawn) [Compound 498], the melting point lay within 122 to 125 °C. Besides, the IC50 in series [1] (setting [3]) was determined as 0.93 µM.
As to `CC1(c2ccc(C(=O)Nc3ccc(Cl)cn3)s2)CCSC(N)=N1` (stereo not drawn) [Compound 500], the melting point is 181 to 184 °C. In addition, the half-inhibitory concentration (IC50) in series [1] (setting [2]) is under 100 µM.
As to `CC1(c2cccc(CO)c2)CCSC(N)=N1` (stereo not drawn) [Compound 501], the melting point lay in the range of 155 to 156 °C. Further, in series [1] (setting [2]), the IC50 is under 100 µM.
The corresponding values for `COc1ccc(OCc2cccc(C3(C)CCSC(N)=N3)c2)cc1` (stereo not drawn) [Compound 502] are 137 to 138 °C and under 100 µM.
In turn, `COC(=O)c1ccc(C2(C)CCSC(N)=N2)cc1` (stereo not drawn) [Compound 1119] yielded a melting point of 153 to 157 °C.
On the same count and under the same terms, under `CNC(=O)c1ccc(C2(C)CCSC(N)=N2)cc1` (stereo not drawn) [Compound 1120] stands 213 to 214 °C; under `CC1(c2cccc(Oc3ccccc3)c2)CCSC(N)=N1` (stereo not drawn) [Compound 1139], 140 to 141 °C.
On the same count and under the same terms, then `COC(=O)c1cccc(C2(C)CCSC(N)=N2)c1` (stereo not drawn) [Compound 1153], with 156 to 159 °C.
`CC(=O)Nc1ccc(C2(C)CCSC(N)=N2)cc1` (stereo not drawn) [Compound 1161] came in with a melting point of 192 to 193 °C.
As for `CC1(c2ccc(F)c(-n3nc4c5cc(Cl)ccc5[nH]cc-4c3=O)c2)CCSC(N)=N1` (stereo not drawn) [Compound 1166], the melting point was 290 to 295 °C.
`CC1(c2ccc(-c3ccccc3)cc2)CCSC(N)=N1` (stereo not drawn) [Compound 1181]: the melting point was 194 to 195 °C.
On to `CC1(c2ccc(C(=O)Nc3ccc(Cl)cc3)cc2)CCSC(N)=N1` (stereo not drawn) [Compound 1230], for which the melting point lay in the range of 232 to 234 °C.

The melting point is the temperature of the solid-liquid transition. The term IC50 denotes the concentration needed to halve the response being measured.

Values taken from patent US8546380B2, “Aminodihydrothiazine derivatives” (Shionogi & Co., Ltd., priority 2005, dated 2013).
